Structures are written as SMILES. Where a name gives a salt, the structure may show the parent alone.

In general, melting point refers to the temperature of the solid-liquid transition. The molecule `C[S@@+]([O-])[C@H]1CO[C@H]2[C@@H]1OC[C@H]2O[N+](=O)[O-]` (as salt: nitrate) [(4), 2-[(R)-methylsulfinyl]isosorbide 5-mononitrate] showed a melting point of 115 °C.

The record behind these values is patent US8541607B2, “Disulfide, sulfide, sulfoxide, and sulfone derivatives of cyclic sugars and uses thereof” (Lacer, S.A., priority 2003, dated 2013).
